Data: ChEMBL document CHEMBL4346687, “Design, synthesis and biological evaluation of novel uracil derivatives bearing 1, 2, 3-triazole moiety as thymidylate synthase (TS) inhibitors and as potential antitumor drugs” (Eur J Med Chem, 2019)
pIC50: −log10 of the molar value.

Assays:
A549 = test: cells; conditions: Homo sapiens, A549, 24 h
Description: Antiproliferative activity against human A549 cells assessed as reduction in cell viability after 24 hrs by MTT assay

[1] = (§1) Cytotoxicity against human L02 cells assessed as reduction in cell viability after 24 hrs by MTT assay; assay type: cell-based; conditions: L02 cells
[2] = (§2) Cytotoxicity against human GES-1 cells assessed as reduction in cell viability after 24 hrs by MTT assay; assay type: cell-based, GES1; conditions: GES-1 cells
OVCAR-3 = test: cells; conditions: Homo sapiens, OVCAR-3, 24 h
Description: Antiproliferative activity against human OVCAR3 cells assessed as reduction in cell viability after 24 hrs by MTT assay

[3] = Cytotoxicity against human HPAEpic cells assessed as reduction in cell viability after 24 hrs by MTT assay; assay type: cell-based; conditions: for CC50 at 24 h: HPAEpic cells; for CC50: 24 h
HepG2 = test: cells; conditions: Homo sapiens, HepG2, 24 h
Description: Antiproliferative activity against human HepG2 cells assessed as reduction in cell viability after 24 hrs by MTT assay

[4] = Cytotoxicity against human IOSE-80 cells assessed as reduction in cell viability after 24 hrs by MTT assay; assay type: cell-based; conditions: for CC50 at 24 h: IOSE-80 cells; for CC50: 24 h
SGC-7901 = test: cells; conditions: Homo sapiens, SGC-7901, 24 h
Description: Antiproliferative activity against human SGC7901 cells assessed as reduction in cell viability after 24 hrs by MTT assay

L02 = test: as §1; assay type: cell-based; conditions: l02, 24 h
GES1 = test: as §2; assay type: cell-based; conditions: ges1, 24 h

Compound	pIC50 (A549)	CC50 at 24 h [1]	CC50 at 24 h [2]	pIC50 (OVCAR-3)	CC50 at 24 h [3]	pIC50 (HepG2)	CC50 at 24 h [4]	pIC50 (SGC-7901)	CC50 [4]	CC50 (L02)	CC50 (GES1)	CC50 [3]
O=c1[nH]cc(S(=O)(=O)Nc2ccc(-c3cn(-c4cccc(Cl)c4)nn3)cc2)c(=O)[nH]1	5.64	19 µM	7.57 µM	5.56	13.8 µM	5.69	14.3 µM	5.61	–	–	–	–
O=c1[nH]cc(S(=O)(=O)Nc2cccc(-c3cn(-c4ccccc4)nn3)c2)c(=O)[nH]1	4.90	> 100 µM	22.5 µM	< 4.70	41.5 µM	4.95	–	4.77	Non-Toxic	–	–	–
O=c1[nH]cc(S(=O)(=O)Nc2ccccc2-c2cn(-c3ccccc3Cl)nn2)c(=O)[nH]1	5.56	22.8 µM	20.8 µM	5.50	17.7 µM	5.65	11.2 µM	5.19	–	–	–	–
O=c1[nH]cc(S(=O)(=O)Nc2ccccc2-c2cn(-c3ccccc3)nn2)c(=O)[nH]1	5.17	10.6 µM	> 100 µM	5.18	14.3 µM	5.21	10.5 µM	4.93	–	–	–	–
O=c1[nH]cc(S(=O)(=O)Nc2cccc(-c3cn(-c4cccc(F)c4)nn3)c2)c(=O)[nH]1	5.14	–	–	< 4.70	–	< 4.70	–	< 4.70	Non-Toxic	Non-Toxic	Non-Toxic	Non-Toxic
O=c1[nH]cc(S(=O)(=O)Nc2cccc(-c3cn(-c4ccc(Cl)cc4)nn3)c2)c(=O)[nH]1	5.76	9.86 µM	11.3 µM	5.69	14 µM	5.71	6.26 µM	5.67	–	–	–	–
O=c1[nH]cc(S(=O)(=O)Nc2cccc(-c3cn(-c4ccc(F)cc4)nn3)c2)c(=O)[nH]1	< 4.70	–	–	< 4.70	–	< 4.70	–	< 4.70	Non-Toxic	Non-Toxic	Non-Toxic	Non-Toxic
Cc1cccc(-n2cc(-c3cccc(NS(=O)(=O)c4c[nH]c(=O)[nH]c4=O)c3)nn2)c1	5.45	28.3 µM	18.5 µM	5.39	23.7 µM	5.15	23.4 µM	5.04	–	–	–	–
Cc1ccccc1-n1cc(-c2ccccc2NS(=O)(=O)c2c[nH]c(=O)[nH]c2=O)nn1	5.49	56.6 µM	19.9 µM	5.18	9.67 µM	4.86	17.4 µM	5.02	–	–	–	–
O=c1[nH]cc(S(=O)(=O)Nc2ccc(-c3cn(-c4ccc(F)cc4)nn3)cc2)c(=O)[nH]1	5.01	–	> 100 µM	< 4.70	> 100 µM	< 4.70	–	< 4.70	Non-Toxic	Non-Toxic	–	–
O=c1[nH]cc(S(=O)(=O)Nc2ccc(-c3cn(-c4ccccc4Cl)nn3)cc2)c(=O)[nH]1	5.55	19.3 µM	16.4 µM	5.37	17 µM	5.65	22.2 µM	5.57	–	–	–	–
Cc1ccc(-n2cc(-c3ccc(NS(=O)(=O)c4c[nH]c(=O)[nH]c4=O)cc3)nn2)cc1	5.25	–	–	5.25	29.1 µM	4.94	30.5 µM	5.08	–	Non-Toxic	Non-Toxic	–
Cc1ccccc1-n1cc(-c2ccc(NS(=O)(=O)c3c[nH]c(=O)[nH]c3=O)cc2)nn1	5.50	–	–	5.14	–	4.84	–	4.87	Non-Toxic	Non-Toxic	Non-Toxic	Non-Toxic
Cc1cccc(-n2cc(-c3ccc(NS(=O)(=O)c4c[nH]c(=O)[nH]c4=O)cc3)nn2)c1	5.16	39 µM	28.3 µM	5.13	31.3 µM	< 4.70	29.3 µM	4.76	–	–	–	–
O=c1[nH]cc(S(=O)(=O)Nc2ccc(-c3cn(-c4ccc(Cl)cc4)nn3)cc2)c(=O)[nH]1	5.92	42.9 µM	23.3 µM	5.67	14.8 µM	5.70	17.7 µM	5.74	–	–	–	–
O=c1[nH]cc(S(=O)(=O)Nc2cccc(-c3cn(-c4ccccc4Cl)nn3)c2)c(=O)[nH]1	5.56	11.5 µM	14 µM	5.27	12.3 µM	5.39	17.9 µM	5.52	–	–	–	–
Cc1ccc(-n2cc(-c3cccc(NS(=O)(=O)c4c[nH]c(=O)[nH]c4=O)c3)nn2)cc1	5.44	23.1 µM	15.8 µM	5.45	10.6 µM	< 4.70	12.8 µM	5.03	–	–	–	–
O=c1[nH]cc(S(=O)(=O)Nc2cccc(-c3cn(-c4cccc(Cl)c4)nn3)c2)c(=O)[nH]1	5.61	8.33 µM	26.2 µM	5.47	10.2 µM	5.38	18.9 µM	5.40	–	–	–	–
Cc1cccc(-n2cc(-c3ccccc3NS(=O)(=O)c3c[nH]c(=O)[nH]c3=O)nn2)c1	5.73	21.9 µM	23.7 µM	5.50	12.3 µM	5.44	15.8 µM	5.45	–	–	–	–
Cc1ccccc1-n1cc(-c2cccc(NS(=O)(=O)c3c[nH]c(=O)[nH]c3=O)c2)nn1	5.26	15.3 µM	21.5 µM	5.21	10.2 µM	5.02	36.4 µM	5.03	–	–	–	–
O=c1[nH]cc(S(=O)(=O)Nc2ccccc2-c2cn(-c3ccccc3F)nn2)c(=O)[nH]1	5.13	> 100 µM	> 100 µM	4.82	> 100 µM	4.90	> 100 µM	4.97	–	–	–	–
Cc1ccc(-n2cc(-c3ccccc3NS(=O)(=O)c3c[nH]c(=O)[nH]c3=O)nn2)cc1	5.54	> 100 µM	32.4 µM	5.66	7.03 µM	5.08	33.4 µM	5.19	–	–	–	–
O=c1[nH]cc(S(=O)(=O)Nc2ccc(-c3cn(-c4ccccc4F)nn3)cc2)c(=O)[nH]1	5.22	> 100 µM	> 100 µM	5.10	32.6 µM	< 4.70	> 100 µM	5.14	–	–	–	–
O=c1[nH]cc(S(=O)(=O)Nc2ccccc2-c2cn(-c3cccc(Cl)c3)nn2)c(=O)[nH]1	5.63	> 100 µM	> 100 µM	5.66	> 100 µM	5.61	> 100 µM	5.64	–	–	–	–
